From patent publication US20140357655A1, “SPIROINDOLINE DERIVATIVES AS GONADOTROPIN- RELEASING HORMONE RECEPTOR ANTAGONISTS” (Bayer Intellectual Property GmbH, priority 2012, published 2014)

Each compound was assayed against T1, human GnRH receptor (Homo sapiens, UniProt P30968) (assay: IP-One HTRF assay with buserelin (at EC80) stimulation). Details: CHO cells stably expressing human GnRH receptor, read-out: Potency in IP-One HTRF assay, given as IC50.
T1 sequence (P30968 1-328): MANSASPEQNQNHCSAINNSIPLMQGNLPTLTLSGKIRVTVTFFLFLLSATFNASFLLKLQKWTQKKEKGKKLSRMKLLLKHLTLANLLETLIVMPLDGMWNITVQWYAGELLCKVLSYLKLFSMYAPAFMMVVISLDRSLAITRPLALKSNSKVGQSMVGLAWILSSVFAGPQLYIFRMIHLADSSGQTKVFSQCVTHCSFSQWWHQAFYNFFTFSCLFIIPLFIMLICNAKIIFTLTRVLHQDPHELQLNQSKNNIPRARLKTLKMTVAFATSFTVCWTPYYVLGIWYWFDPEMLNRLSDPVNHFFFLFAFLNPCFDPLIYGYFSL
Assay type: cell-based
Procedure, shortened: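 CHO cells stably expressing human GnRH receptor, preincubated 1 h at 37° C with IP1-d2, were exposed to compound and buserelin at EC80 for 1 h at 37° C. After lysis with Tb-anti-IP1 antibody (1 h, 22° C), 665/620 nm HTRF ratio read; 10 concentrations, 20 μM–1 nM, duplicates, 4-parameter IC50.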

| SMILES | IC50 [nM] |
| --- | --- |
| CC1N(S(=O)(=O)c2ccc(F)cc2)c2ccc(C(=O)NCc3ncccc3C(F)(F)F)cc2C12CCOCC2 (centres unmarked) [Example 3, 1-[(4-fluorophenyl)sulfonyl]-2-methyl-N-{[3-(trifluoromethyl)pyridin-2-yl]methyl}-1,2,2′,3′,5′,6′-hexahydrospiro[indole-3,4′-pyran]-5-carboxamide] | 584 |
| CC1N(S(=O)(=O)c2ccc(F)cc2)c2ccc(C(=O)NCc3ccccc3C(F)(F)F)cc2C12CCOCC2 (centres unmarked) [Example 4, 1-[(4-fluorophenyl)sulfonyl]-2-methyl-N-[2-(trifluoromethyl)benzyl]-1,2,2′,3′,5′,6′-hexahydrospiro[indole-3,4′-pyran]-5-carboxamide] | 281 |
| CC1N(S(=O)(=O)c2ccc(F)cc2)c2ccc(C(=O)NCc3ncc(F)cc3Cl)cc2C12CCOCC2 (centres unmarked) [Example 5, N-[(3-chloro-5-fluoropyridin-2-yl)methyl]-1-[(4-fluorophenyl)sulfonyl]-2-methyl-1,2,2′,3′,5′,6′-hexahydrospiro[indole-3,4′-pyran]-5-carboxamide] | 345 |
| CC1N(S(=O)(=O)c2ccc(F)cc2)c2ccc(C(=O)NCc3ccccn3)cc2C12CCOCC2 (centres unmarked) [Example 6, 1-[(4-fluorophenyl)sulfonyl]-2-methyl-N-(2-pyridylmethyl)-1,2,2′,3′,5′,6′-hexahydrospiro[indole-3,4′-pyran]-5-carboxamide] | 6720 |
| CC1N(S(=O)(=O)c2ccc(F)cc2)c2ccc(C(=O)NCc3ccc(F)cc3)cc2C12CCOCC2 (centres unmarked) [Example 7, N-(4-fluorobenzyl)-1-[(4-fluorophenyl)sulfonyl]-2-methyl-1,2,2′,3′,5′,6′-hexahydrospiro[indole-3,4′-pyran]-5-carboxamide] | 1060 |
| CC1N(S(=O)(=O)c2ccc(F)cc2)c2ccc(C(=O)NCc3ccccc3C#N)cc2C12CCOCC2 (centres unmarked) [Example 8, N-(2-cyanobenzyl)-1-[(4-fluorophenyl)sulfonyl]-2-methyl-1,2,2′,3′,5′,6′-hexahydrospiro[indole-3,4′-pyran]-5-carboxamide] | 2510 |
| CC1N(S(=O)(=O)c2ccc(F)cc2)c2ccc(C(=O)NCc3ccccc3S(C)(=O)=O)cc2C12CCOCC2 (centres unmarked) [Example 9, 1-[(4-fluorophenyl)sulfonyl]-N-(2-mesylbenzyl)-2-methyl-1,2,2′,3′,5′,6′-hexahydrospiro[indole-3,4′-pyran]-5-carboxamide] | 4830 |
| CC1N(S(=O)(=O)c2ccc(F)cc2)c2ccc(C(=O)Nc3cccc(S(C)(=O)=O)c3)cc2C12CCOCC2 (centres unmarked) [Example 10, 1-[(4-fluorophenyl)sulfonyl]-N-(3-mesylphenyl)-2-methyl-1,2,2′,3′,5′,6′-hexahydrospiro[indole-3,4′-pyran]-5-carboxamide] | 1390 |
| CC1N(S(=O)(=O)c2ccc(F)cc2)c2ccc(C(=O)Nc3cccc(S(=O)(=O)N(C)C)c3)cc2C12CCOCC2 (centres unmarked) [Example 11, N-[3-(N,N-dimethylsulfamoyl)phenyl]-1-[(4-fluorophenyl)sulfonyl]-2-methyl-1,2,2′,3′,5′,6′-hexahydrospiro[indole-3,4′-pyran]-5-carboxamide] | 378 |
| O=C(NCc1ccccc1Cl)c1ccc2c(c1)C1(CC[S+]([O-])CC1)C(C1CC1)N2S(=O)(=O)c1ccc(F)cc1 (centres unmarked) [Example 13, N-(2-Chlorobenzyl)-2-cyclopropyl-1-[(4-fluorophenyl)sulfonyl]-1,2,2′,3′,5′,6′-hexahydrospiro[indole-3,4′-thiopyran]-5-carboxamide 1′-oxide] | 30 |
| O=C(NCc1ncccc1C(F)(F)F)c1ccc2c(c1)C1(CCS(=O)(=O)CC1)C(C1CC1)N2S(=O)(=O)c1ccc(F)cc1 (centres unmarked) [Example 15, 2-cyclopropyl-1-[(4-fluorophenyl)sulfonyl]-N-{[3-(trifluoromethyl)pyridin-2-yl]methyl}-1,2,2′,3′,5′,6′-hexahydrospiro[indole-3,4′-thiopyran]-5-carboxamide 1′,1′-dioxide] | 103 |
| O=C(NCc1ccc(F)cc1Cl)c1ccc2c(c1)C1(CCS(=O)(=O)CC1)C(C1CC1)N2S(=O)(=O)c1ccc(F)cc1 (centres unmarked) [Example 16, N-(2-chloro-4-fluorobenzyl)-2-cyclopropyl-1-[(4-fluorophenyl)sulfonyl]-1,2,2′,3′,5′,6′-hexahydrospiro[indole-3,4′-thiopyran]-5-carboxamide 1′,1′-dioxide] | 74 |
| O=C(NCc1ncc(F)cc1Cl)c1ccc2c(c1)C1(CCS(=O)(=O)CC1)C(C1CC1)N2S(=O)(=O)c1ccc(F)cc1 (centres unmarked) [Example 17, N-[(3-chloro-5-fluoropyridin-2-yl)methyl]-2-cyclopropyl-1-[(4-fluorophenyl)sulfonyl]-1,2,2′,3′,5′,6′-hexahydrospiro[indole-3,4′-thiopyran]-5-carboxamide 1′,1′-dioxide] | 184 |
| O=C(NCc1ccccc1Cl)c1ccc2c(c1)C1(CCS(=O)(=O)CC1)C(C1CC1)N2S(=O)(=O)c1ccc(F)cc1 (centres unmarked) [Example 18, N-(2-chlorobenzyl)-2-cyclopropyl-1-[(4-fluorophenyl)sulfonyl]-1,2,2′,3′,5′,6′-hexahydrospiro[indole-3,4′-thiopyran]-5-carboxamide 1′,1′-dioxide] | 47 |
| CC(C)(NC(=O)c1ccc2c(c1)C1(CCS(=O)(=O)CC1)C(C1CC1)N2S(=O)(=O)c1ccc(F)cc1)c1ccc(F)cc1Cl (stereo not drawn) [Example 19, N-(2-chloro-4-fluoro-α,α-dimethylbenzyl)-2-cyclopropyl-1-[(4-fluorophenyl)sulfonyl]-1,2,2′,3′,5′,6′-hexahydrospiro[indole-3,4′-thiopyran]-5-carboxamide 1′,1′-dioxide] | 4170 |
| CC(C)(NC(=O)c1ccc2c(c1)C1(CCS(=O)(=O)CC1)C(C1CC1)N2S(=O)(=O)c1ccc(F)cc1)c1ccc(F)cc1 (stereo not drawn) [Example 20, 2-cyclopropyl-N-(4-fluoro-α,α-dimethylbenzyl)-1-[(4-fluorophenyl)sulfonyl]-1,2,2′,3′,5′,6′-hexahydrospiro[indole-3,4′-thiopyran]-5-carboxamide 1′,1′-dioxide] | 346 |
| O=C(NC1(c2ccccc2Cl)CC1)c1ccc2c(c1)C1(CCS(=O)(=O)CC1)C(C1CC1)N2S(=O)(=O)c1ccc(F)cc1 (centres unmarked) [Example 21, N-[1-(2-chlorophenyl)cyclopropyl]-2-cyclopropyl-1-[(4-fluorophenyl)sulfonyl]-1,2,2′,3′,5′,6′-hexahydrospiro[indole-3,4′-thiopyran]-5-carboxamide 1′,1′-dioxide] | 3040 |
| O=C(NCc1ccccn1)c1ccc2c(c1)C1(CCS(=O)(=O)CC1)C(C1CC1)N2S(=O)(=O)c1ccc(F)cc1 (centres unmarked) [Example 22, 2-cyclopropyl-1-[(4-fluorophenyl)sulfonyl]-N-(2-pyridylmethyl)-1,2,2′,3′,5′,6′-hexahydrospiro[indole-3,4′-thiopyran]-5-carboxamide 1′,1′-dioxide] | 1480 |
| CS(=O)(=O)c1cccc(NC(=O)c2ccc3c(c2)C2(CCS(=O)(=O)CC2)C(C2CC2)N3S(=O)(=O)c2ccc(F)cc2)c1 (centres unmarked) [Example 23, 2-cyclopropyl-1-[(4-fluorophenyl)sulfonyl]-N-(3-mesylphenyl)-1,2,2′,3′,5′,6′-hexahydrospiro[indole-3,4′-thiopyran]-5-carboxamide 1′,1′-dioxide] | 328 |
| O=C(NCCc1ccccc1Cl)c1ccc2c(c1)C1(CCS(=O)(=O)CC1)C(C1CC1)N2S(=O)(=O)c1ccc(F)cc1 (centres unmarked) [Example 25, N-[2-(2-chlorophenyl)ethyl]-2-cyclopropyl-1-[(4-fluorophenyl)sulfonyl]-1,2,2′,3′,5′,6′-hexahydrospiro[indole-3,4′-thiopyran]-5-carboxamide 1′,1′-dioxide] | 2620 |
